Data taken from patent US9540338B2, “Substituted cinnamic acid amides for treating pain” (NIPPON ZOKI PHARMACEUTICAL CO., LTD., priority 2012, dated 2017).
Counter-ions that a name gives are not always drawn. Marks after values point to notes of the source that are not given here.

Tests used:
Chung model rat = assay: Analgesic efficacy test (2): Chung model rat, neuropathic pain model (allodynia, von Frey filament); type: in vivo, rats; conditions: mean ± standard error
Description: An analgesic efficacy test was conducted using a Chung model rat, a neuropathic pain model. Nine-week old Wistar male rats were previously bred as an experimental animal, and a model rat was then prepared in accordance with the method of Kim and Chung (Pain, 50, 355-363, 1992). Specifically, left L5 spinal nerves of rats were exposed under anesthetization with pentobarbital (40 mg/kg, intraperitoneal administration), and firmly ligated with 5-0 silk yarn at L5 dorsal root ganglion peripheral side. The animals were placed in a transparent acrylic cage of which bottom was wire netted The measurement of allodynia was carried out using von Frey filament (manufactured by North Coast Medical Inc.) and a 50% reaction threshold was calculated according to an up-down method, in accordance with a method of Chaplan et al. (J. Neurosci. Method, 53, 55-63, 1994). The 50% reaction thresholds were measured twice before injury of the spinal nerve, and those animals of which thresholds were outside the standard were removed from the operation of spinal nerve injury. On or after 14 days from the spinal nerve injury, a 50% reaction threshold was measured, and those showing thresholds of 1 g or more and less than 4 g were used as experimental animal. The group was constituted by 7 or 8 rats per group so that an average of a 50% reaction threshold for each group would be nearly even.
A solution or suspension prepared by dissolving or suspending a compound of the present invention in a 0.5% (w/v) aqueous CMC-Na solution was orally administered as a test substance in a single dose. Also, a 0.5% (w/v) aqueous CMC-Na solution was administered in the same manner to the control group for nerve injury. The measurements of allodynia were carried out with the passage of time after administration, and a 50% reaction threshold (mean±standard error) of each group at action peak was calculated. In the test for significance difference, Bartlett's test was carried out in the comparison between multiple groups of the group administered with test substance with the control group for nerve injury. In the case of homoscedasticity, Dunnett's multiple comparison test of parametrics, and in the case of heteroscedasticity, Dunnett's multiple comparison test of non-parametrics were used. In all cases, significance difference was considered to be found at P<0.05 (indicated as “*” in the tables).

ddY-type mice = assay: Analgesic efficacy test (1): acetic acid writhing test; type: in vivo; conditions: Mus musculus, writhing number, mean ± standard error, 8 mice per group, read-out: Suppressive Rate; for inhibition in vivo at 10 mg/kg: oral single dose 10 mg/kg; for inhibition in vivo at 100 mg/kg: oral single dose 100 mg/kg
Description: A compound of the present invention was orally administered to mice, to carry out an analgesic efficacy test according to acetic acid writhing test. As an experimental animal, 4-week old male ddY-type mice were previously bred, and thereafter 8 mice per one group were used in the experiment. A solution or suspension prepared by dissolving or suspending a compound of the present invention in a 0.5% (w/v) aqueous CMC-Na solution was orally administered as a test substance in a single dose. While, to a control group, a 0.5% (w/v) aqueous CMC-Na solution was administered in the same manner After 25 minutes from administration, the mice were intraperitoneally administered with a 0.7% (v/v) acetic acid/physiological saline at the dose of 10 mL/kg. From 5 minutes thereafter, writhing number in a 10-minute period was counted, and a suppressive rate for each individual (mean±standard error) was calculated by the following formula: […]
In the test for significance difference, Bartlett's test was carried out in the comparison between multiple groups of the group administered with test substance with the control group. In the case of homoscedasticity, Dunnett's multiple comparison test of parametrics, and in the case of heteroscedasticity, Dunnett's multiple comparison test of non-parametrics were used. In addition, in the test of dose dependency, Jonckheere-Terpstra's test was used. In all cases, significance difference was considered to be found at P<0.05 (indicated as “*” in the table).

[1] = oral 1 mg/kg, measurement point 90 minute (action peak)
[2] = oral 10 mg/kg, measurement point 90 minute (action peak)
[3] = oral 1 mg/kg, measurement point 60 minute (action peak)
[4] = oral 10 mg/kg, measurement point 60 minute (action peak)
[5] = oral 1 mg/kg, measurement point 30 minute (action peak)
[6] = oral 10 mg/kg, measurement point 30 minute (action peak)

SMILES	melting point [°C]	50% Reaction Threshold, Group Administered with Test Substance, After Administration (Chung model rat; [1])	50% Reaction Threshold, Group Administered with Test Substance, After Administration (Chung model rat; [2])	50% Reaction Threshold, Group Administered with Test Substance, After Administration (Chung model rat; [3])	50% Reaction Threshold, Group Administered with Test Substance, After Administration (Chung model rat; [4])	further results
O=C(/C=C/c1ccccc1F)NCCc1c[nH]c2ccccc12 [Compound 1, (E)-3-(2-Fluorophenyl)-N-[2-(1H-indol-3-yl)ethyl]-2-propenamide]	–	6.71 ± 1.33 g	14.06 ± 0.61* g	–	–	inhibition in vivo at 10 mg/kg (ddY-type mice): 46.9 ± 7.6%; inhibition in vivo at 100 mg/kg (ddY-type mice): 62.7 ± 6%
CN1CCN(CCCNC(=O)/C=C/c2ccccc2F)CC1 [Compound 15, (E)-3-(2-Fluorophenyl)-N-[3-(4-methylpiperazin-1-yl)propyl]-2-propenamide dihydrochloride]	–	7.45 ± 1.95* g	7.43 ± 1.63* g	–	–	inhibition in vivo at 10 mg/kg (ddY-type mice): 24.3 ± 12.7%; inhibition in vivo at 100 mg/kg (ddY-type mice): 44.1 ± 6.6%
O=C(/C=C/c1ccccc1F)NCCN1CCNCC1 [Compound 16, (E)-3-(2-Fluorophenyl)-N-[2-(piperazin-1-yl)ethyl]-2-propenamide dihydrochloride]	–	5.48 ± 0.82 g	7.48 ± 1.30 g	–	–	inhibition in vivo at 10 mg/kg (ddY-type mice): 42.6 ± 9.1%; inhibition in vivo at 100 mg/kg (ddY-type mice): 65.5 ± 8.9%
Cl.O=C(/C=C/c1ccccc1F)NCCn1ccnc1 [Compound 21, (E)-3-(2-Fluorophenyl)-N-[2-(imidazol-1-yl)ethyl]-2-propenamide hydrochloride]	–	11.78 ± 1.20* g	–	–	–	50% Reaction Threshold, Group Administered with Test Substance, After Administration (Chung model rat; oral 0.1 mg/kg, measurement point 90 minute (action peak)): 6.04 ± 0.89 g; 50% Reaction Threshold, Group Administered with Test Substance, After Administration (Chung model rat; oral 0.3 mg/kg, measurement point 90 minute (action peak)): 8.80 ± 1.42* g; inhibition in vivo at 10 mg/kg (ddY-type mice): 44.5 ± 11.7%; inhibition in vivo at 100 mg/kg (ddY-type mice): 49.7 ± 4.7%
O=C(/C=C/c1ccc(F)cc1)Nc1ccc(N2CCOCC2)cc1 [Compound 33, (E)-3-(4-Fluorophenyl)-N-[4-morpholinophenyl]-2-propenamide]	223 to 224	–	–	8.93 ± 1.46* g	9.35 ± 2.10* g	–
O=C(/C=C/c1ccccc1F)NCCn1ccnn1 [Compound 40, (E)-3-(2-Fluorophenyl)-N-[2-([1,2,3]triazol-1-yl)ethyl]-2-propenamide]	110 to 112	–	–	3.61 ± 0.41 g	5.86 ± 1.17* g	–
Cc1nccn1CCNC(=O)/C=C/c1ccccc1F [Compound 42, (E)-3-(2-Fluorophenyl)-N-[2-(2-methylimidazol-1-yl)ethyl]-2-propenamide]	127 to 129	–	–	–	–	50% Reaction Threshold, Group Administered with Test Substance, After Administration (Chung model rat; [5]): 2.60 ± 0.32 g; 50% Reaction Threshold, Group Administered with Test Substance, After Administration (Chung model rat; [6]): 4.24 ± 0.35* g
C/C(=C\c1ccc(F)cc1)C(=O)NCCCN1CCOCC1 [Compound 46, (E)-3-(4-Fluorophenyl)-2-methyl-N-(3-morpholinopropyl)-2-propenamide]	78 to 79	–	–	–	–	50% Reaction Threshold, Group Administered with Test Substance, After Administration (Chung model rat; [5]): 7.51 ± 1.60* g; 50% Reaction Threshold, Group Administered with Test Substance, After Administration (Chung model rat; [6]): 8.70 ± 1.43* g
O=C(/C=C/c1ccc(F)cc1)NCCCN1CCSCC1 [Compound 60, (E)-3-(4-Fluorophenyl)-N-(3-thiomorpholinopropyl)-2-propenamide]	121 to 122	–	–	–	–	50% Reaction Threshold, Group Administered with Test Substance, After Administration (Chung model rat; [5]): 4.03 ± 0.54 g; 50% Reaction Threshold, Group Administered with Test Substance, After Administration (Chung model rat; [6]): 8.45 ± 1.01* g
Cl.O=C(/C=C/c1ccccc1F)NCCCN1CCS(=O)(=O)CC1 [Compound 62, (E)-N-[3-(1,1-Dioxo-1,4-thiazinan-4-yl)propyl]-3-(2-fluorophenyl)-2-propenamide hydrochloride]	252 to 253	6.17 ± 1.33 g	9.22 ± 1.28* g	–	–	–
Cl.O=C(/C=C/c1ccc(F)cc1)NCCCN1CCS(=O)(=O)CC1 [Compound 63, (E)-N-[3-(1,1-Dioxo-1,4-thiazinan-4-yl)propyl]-3-(4-fluorophenyl)-2-propenamide hydrochloride]	247 to 248	3.60 ± 0.35 g	6.74 ± 0.62* g	–	–	–
Cl.N=C(N)NCCCCNC(=O)/C=C/c1ccccc1F [Compound 65, (E)-3-(2-Fluorophenyl)-N-(4-guanidinobutyl)-2-propenamide hydrochloride]	154 to 156	–	–	5.01 ± 0.52* g	5.24 ± 0.47* g	–
O=C(/C=C/c1ccc(F)cc1)NCCCN1CC[S+]([O-])CC1 [Compound 67, (E)-3-(4-Fluorophenyl)-N-[3-(1-oxo-1,4-thiazinan-4-yl)propyl]-2-propenamide]	130 to 131	–	–	10.63 ± 1.23* g	10.71 ± 2.13* g	–

More lines, main results first:

melting point [°C]	SMILES	50% Reaction Threshold, Group Administered with Test Substance, After Administration (Chung model rat; [1])	50% Reaction Threshold, Group Administered with Test Substance, After Administration (Chung model rat; [2])	50% Reaction Threshold, Group Administered with Test Substance, After Administration (Chung model rat; [3])	50% Reaction Threshold, Group Administered with Test Substance, After Administration (Chung model rat; [4])	further results
124 to 126	O=C(/C=C/c1ccccc1F)NCCn1cccn1 [Compound 38, (E)-3-(2-Fluorophenyl)-N-[2-(pyrazol-1-yl)ethyl]-2-propenamide]	2.74 ± 0.23 g	4.06 ± 0.52* g	–	–	–
185 to 187	O=C(/C=C/c1ccccc1F)Nc1cccc(-c2ccno2)c1 [Compound 54, (E)-3-(2-Fluorophenyl)-N-[3-(isoxazol-5-yl)phenyl]-2-propenamide]	–	–	–	–	50% Reaction Threshold, Group Administered with Test Substance, After Administration (Chung model rat; [5]): 5.18 ± 0.81 g; 50% Reaction Threshold, Group Administered with Test Substance, After Administration (Chung model rat; [6]): 11.20 ± 1.19* g
178 to 179	Cl.O=C(/C=C/c1ccccc1F)NCCCN1CCSCC1 [Compound 61, (E)-3-(2-Fluorophenyl)-N-(3-thiomorpholinopropyl)-2-propenamide hydrochloride]	–	–	10.64 ± 1.38* g	11.81 ± 1.47* g	–
182 to 183	Cl.O=C(/C=C/c1ccccc1F)NCCCN1CC[S+]([O-])CC1 [Compound 68, (E)-3-(2-Fluorophenyl)-N-[3-(1-oxo-1,4-thiazinan-4-yl)propyl]-2-propenamide hydrochloride]	9.04 ± 1.17* g	11.25 ± 0.94* g	–	–	–
154 to 155	O=C(/C=C/c1ccccc1F)NCc1cccc(N2CCSCC2)c1 [Compound 69, (E)-3-(2-Fluorophenyl)-N-[(3-thiomorpholinophenyl)methyl]-2-propenamide]	–	–	3.68 ± 0.40* g	4.35 ± 0.51* g	–
156 to 157	O=C(/C=C/c1ccccc1F)NCc1cccc(N2CC[S+]([O-])CC2)c1 [Compound 70, (E)-3-(2-Fluorophenyl)-N-{[3-(oxo-1,4-thiazinan-4-yl)phenyl]methyl}-2-propenamide]	–	–	4.09 ± 0.34* g	3.41 ± 0.31* g	–
